The text below walks through data of patent publication US6930088B2, “Conformationally constrained backbone cyclized somatostatin analogs” (Peptor Ltd., priority 1998, dated 2005).

*1 amine or outer side, *2 acyl side, *3 side chain or, on linkers, in order; H or OH if unused. Where a SMILES comes first, the peptide text is derived from it. Bridges are numbered along the chain shown (N, C = ends). Where no end group is shown, it is not given here. [ ]: non-standard residue; d: D form. N(2-aminoethyl)Phe = O=C([C@H](Cc1ccccc1)N(CCN[*:3])[*:1])[*:2]; N(CH2CH2CO)Gly = O=C(CN(CCC(=O)[*:3])[*:1])[*:2]; 2Nal = N[C@@H](Cc1ccc2ccccc2c1)C(=O)O; Gly(S2) = not defined here; Phe(C1) = not defined here; Mpa = O=C(O)CCS

Data set [1] concerns the target T1, SSTR-3 (Homo sapiens, UniProt P32745).
T1 construct: expressed in transfected cells
In words: Inhibition of 125I-Tyr11-SRIF binding to membrane preparations expressing SSTR-3. The note with it: SST-R3, read-out: Percent inhibition of SRIF-14 binding; for inhibition at 1 µM: 10^−6M; for inhibition at 0.1 µM: 10^−7M; for inhibition at 0.01 µM: 10^−8M. The method, then:
The somatostatin analogs were tested for their potency in inhibition of the binding of ^125I-Tyr^11-SRIF (based on the method described by Raynor et. al., Molecular Pharmacology, 1993, 43, 838-844) to membrane preparations expressing the transmembranal somatostatin receptors (SSTR-1, 2, 3, 4 or 5). The receptor preparations used for these tests were either from the cloned human receptors selectively and stably expressed in Chinese Hamster Ovary (CHO) cells or from cell lines naturally expressing the SSTRs. […] The binding reactions were filtered, the filters were washed and the bound radioactivity was counted in gamma counter. Non specific binding was defined as the radioactivity remaining bound in the presence of 1 μM unlabeled SRIF-14.
(§1) In order to validate positive signals of the binding tests, and to eliminate non-specific signals, samples of irrelevant peptides, such as GnRH, that were synthesized and handled using the same procedures, were tested in the same assays as negative control samples. These samples had no binding activity in any of the assays. Results are shown below in Tables 5 and 6 and FIG. 1.

The nature of data set [2]: in vitro. The note with it: for remaining at 1 h / remaining at 3 h / remaining at 24 h: kidney or brush border membranes. The method, then: The assay was based on HPLC determination of peptide degradation as a function of time in renal homogenate at 37° C.
For data set [3] the following is noted: rat, in vivo, iv, 6 mg/kg. The method, then: PTR 3173 was tested in various species for its initial safety properties. Under the European Pharmacopoeia requirements for safety testing, it was declared a safe drug candidate at this stage of development.
For data set [4], the target named is T2, SSTR-5 (Homo sapiens, UniProt P35346).
T2 construct: expressed in transfected cells
T2 sequence (P35346 whole entry): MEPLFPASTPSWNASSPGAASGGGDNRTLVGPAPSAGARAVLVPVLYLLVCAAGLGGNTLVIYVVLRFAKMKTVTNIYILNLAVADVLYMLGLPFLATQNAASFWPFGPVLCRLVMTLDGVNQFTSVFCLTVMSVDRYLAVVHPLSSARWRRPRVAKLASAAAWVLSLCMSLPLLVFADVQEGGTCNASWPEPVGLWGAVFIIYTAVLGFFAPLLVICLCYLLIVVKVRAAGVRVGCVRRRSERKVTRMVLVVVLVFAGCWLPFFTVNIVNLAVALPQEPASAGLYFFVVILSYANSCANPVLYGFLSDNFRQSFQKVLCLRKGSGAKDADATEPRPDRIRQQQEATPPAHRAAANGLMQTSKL
Kind of data set: Inhibition of 125I-Tyr11-SRIF binding to membrane preparations expressing SSTR-5. The settings on record: SST-R5, read-out: Percent inhibition of SRIF-14 binding; for inhibition at 1 µM: 10^−6M; for inhibition at 0.1 µM: 10^−7M; for inhibition at 0.01 µM: 10^−8M. The method, then:
The receptor preparations used for these tests were either from the cloned human receptors selectively and stably expressed in Chinese Hamster Ovary (CHO) cells or from cell lines naturally expressing the SSTRs. […] The binding reactions were filtered, the filters were washed and the bound radioactivity was counted in gamma counter. Non specific binding was defined as the radioactivity remaining bound in the presence of 1 μM unlabeled SRIF-14.
as §1

Data set [5] in a line: Metabolic bio-stability against degradation by enzyme mixtures. In kind it is in vitro ADME. The note with it: in words; renal homogenate, rat liver homogenate and human serum.
The subject of data set [6] is Opiate receptors. Kind of data set: NovaScreen nonspecific binding, Opiate receptors. The settings on record: tested at 100 nM; FIG. 2. An excerpt:
NovaScreen (Hanover, Md.) performed an assessment for nonspecific binding to various G-protein coupled receptor families. Binding studies to Neurokinin, Opiate and Muscarinic receptors were based on a comparison between the native hormone Somatostatin, Ocreotide and PTR 3173.

For data set [7], the system named is somatostatin receptors (SSTR-1, 2, 3, 4 or 5). Kind of data set: Somatostatin receptor subtype selectivity of binding. On the set-up: species or system human. The note with it: in words. The method, then: The somatostatin analogs were tested for their potency in inhibition of the binding of ^125I-Tyr^11-SRIF (based on the method described by Raynor et. al., Molecular Pharmacology, 1993, 43, 838-844) to membrane preparations expressing the transmembranal somatostatin receptors (SSTR-1, 2, 3, 4 or 5). The receptor preparations used for these tests were either from the cloned human receptors selectively and stably expressed in Chinese Hamster Ovary (CHO) cells or from cell lines naturally expressing the SSTRs. Typically, cell membranes were homogenated in Tris buffer in the presence of protease inhibitors and incubated for 30-40 minutes with ^125I-Tyr^11-SRIF with different concentrations of the tested sample. The binding reactions were filtered, the filters were washed and the bound radioactivity was counted in gamma counter. Non specific binding was defined as the radioactivity remaining bound in the presence of 1 μM unlabeled SRIF-14.
as §1

Data set [8] addresses T3, cloned human somatostatin receptor 5 (human, UniProt P35346 1-364).
T3 construct: whole, on cells; Tested as cell membrane preparations; also called SSTR-5; SSTR5
Kind of data set: IC50 for SST-R5 (subtype numbers stand in r6).

Data set [9] addresses T3, cloned human somatostatin receptor 5. Kind of data set: inhibition of SRIF binding, cloned human SSTR-5; head says nM, values evidently molar. From the text:
(§2) The receptor preparations used for these tests were either from the cloned human receptors selectively and stably expressed in Chinese Hamster Ovary (CHO) cells or from cell lines naturally expressing the SSTRs. […] The binding reactions were filtered, the filters were washed and the bound radioactivity was counted in gamma counter.

Data set [10] deals with T4, cloned human somatostatin receptor 3 (human, UniProt P32745 1-418).
T4 construct: whole, on cells; Tested as cell membrane preparations; also called SSTR-3; SSTR3
T4 sequence (P32745 whole entry): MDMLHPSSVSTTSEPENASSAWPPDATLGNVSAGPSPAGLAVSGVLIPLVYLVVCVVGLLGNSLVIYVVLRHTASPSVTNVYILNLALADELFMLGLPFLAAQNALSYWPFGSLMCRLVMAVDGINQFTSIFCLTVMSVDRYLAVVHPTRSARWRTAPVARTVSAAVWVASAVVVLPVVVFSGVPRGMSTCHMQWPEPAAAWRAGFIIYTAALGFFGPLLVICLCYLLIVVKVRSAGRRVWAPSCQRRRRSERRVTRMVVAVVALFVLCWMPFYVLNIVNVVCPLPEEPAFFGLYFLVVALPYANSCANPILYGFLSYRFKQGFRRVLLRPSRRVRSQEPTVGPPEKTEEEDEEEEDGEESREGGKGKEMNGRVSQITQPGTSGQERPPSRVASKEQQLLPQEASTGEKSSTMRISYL
In words: inhibition of SRIF binding, cloned human SSTR-3; head says nM, values evidently molar.
Source text: as §2

Data set [11] deals with T5, cloned human somatostatin receptor 1 (human, UniProt P30872 1-391).
T5 construct: whole, on cells; Tested as cell membrane preparations; also called SSTR-1; SSTR1
T5 sequence (P30872 whole entry): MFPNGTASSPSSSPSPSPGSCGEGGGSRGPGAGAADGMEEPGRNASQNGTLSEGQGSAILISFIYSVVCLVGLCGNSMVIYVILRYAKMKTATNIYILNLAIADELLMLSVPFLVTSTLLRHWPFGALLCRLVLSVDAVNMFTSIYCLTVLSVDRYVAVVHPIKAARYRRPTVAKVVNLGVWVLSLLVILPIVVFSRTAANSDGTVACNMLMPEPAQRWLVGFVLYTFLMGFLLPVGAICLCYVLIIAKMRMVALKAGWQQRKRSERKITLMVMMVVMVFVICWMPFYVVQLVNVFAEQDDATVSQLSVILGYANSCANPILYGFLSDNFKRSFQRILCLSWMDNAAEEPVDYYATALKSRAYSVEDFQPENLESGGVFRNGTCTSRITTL
Kind of data set: inhibition of SRIF binding, cloned human SSTR-1; head says nM, values evidently molar.
Source text: as §2

For data set [12], the target named is T6, cloned human somatostatin receptor 2 (human, UniProt P30874 1-369).
T6 construct: whole, on cells; Tested as cell membrane preparations; also called SSTR-2; SSTR2
T6 sequence (P30874 whole entry): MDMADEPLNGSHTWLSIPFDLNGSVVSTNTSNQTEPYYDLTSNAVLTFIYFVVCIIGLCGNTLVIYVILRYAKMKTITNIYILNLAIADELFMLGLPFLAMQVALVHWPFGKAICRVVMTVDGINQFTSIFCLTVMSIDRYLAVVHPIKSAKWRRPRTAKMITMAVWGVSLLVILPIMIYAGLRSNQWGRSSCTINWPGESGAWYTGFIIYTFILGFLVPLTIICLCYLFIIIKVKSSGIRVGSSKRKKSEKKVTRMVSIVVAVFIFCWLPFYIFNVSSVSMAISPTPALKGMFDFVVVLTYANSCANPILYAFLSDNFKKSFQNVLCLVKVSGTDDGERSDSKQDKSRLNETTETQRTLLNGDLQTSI
Kind of data set: inhibition of SRIF binding, cloned human SSTR-2; head says nM, values evidently molar.
Source text: as §2

For data set [13], the target named is T4, cloned human somatostatin receptor 3. In words: IC50 for SST-R3 (subtype numbers stand in r6).
Data set [14] has as its target T5, cloned human somatostatin receptor 1. In words: IC50 for SST-R1 (subtype numbers stand in r6).
For data set [15], the target named is T3, cloned human somatostatin receptor 5. Kind of data set: 125I-Tyr11-SRIF displacement, membranes, cloned human SST-R5.
Data set [16] addresses T4, cloned human somatostatin receptor 3. Kind of data set: 125I-Tyr11-SRIF displacement, membranes, cloned human SST-R3.
Source text: as §2

T1 sequence (P32745 whole entry): as the sequence (P32745 whole entry) above
T3 sequence (P35346 whole entry): as the sequence (P35346 whole entry) above

With `NCCCC[C@@H]1NC(=O)[C@@H](Cc2c[nH]c3ccccc23)NC(=O)[C@H](Cc2ccccc2)NC(=O)[C@H](Cc2ccccc2)NC(=O)[C@H](Cc2ccccc2)NCC(=O)NCCN([C@@H](Cc2ccccc2)C(N)=O)C1=O` [PTR 3113, Phe(C1)-Phe-Phe-(D)Trp-Lys-Phe(N2)-X], in data set [1], the inhibition at 1 µM is 94%, the inhibition at 0.1 µM was determined as 65% and the inhibition at 0.01 µM is 16%. In data set [2], this molecule showed a fraction remaining at 1 h of 100%, a share remaining at 3 h of 100% and a fraction remaining at 24 h of 100%. In addition, the safety result in data set [3] was “safe”. For the same molecule, in [4], the inhibition at 1 µM was found to be 86%, the inhibition at 0.1 µM amounted to 50% and the inhibition at 0.01 µM amounted to 0%.

With `NCCCC[C@H]1NC(=O)[C@@H](Cc2c[nH]c3ccccc23)NC(=O)[C@H](Cc2ccccc2)NC(=O)[C@H](Cc2ccccc2)NC(=O)[C@H](Cc2ccccc2)NCC(=O)NCCN([C@@H](Cc2ccccc2)C(N)=O)C1=O` [PTR 3123, Phe(C1)-Phe-Phe-(D)Trp-(D)Lys-Phe(N2)-X], in data set [1], the inhibition at 1 µM came to 84%, the inhibition at 0.1 µM was determined as 41% and the inhibition at 0.01 µM worked out at 24%. In data set [2], this molecule yielded a share remaining at 1 h of 100%, an amount remaining at 3 h of 100% and a fraction remaining at 24 h of 100%. Also, in data set [3], the safety entry is recorded as “safe”. In data set [4], the inhibition at 1 µM came to 0%, the inhibition at 0.1 µM came out at 0% and the inhibition at 0.01 µM came to 0%.

`NCCCC[C@@H]1NC(=O)[C@@H](Cc2c[nH]c3ccccc23)NC(=O)[C@H](Cc2ccc(O)cc2)NC(=O)[C@H](Cc2ccccc2)NCCNC(=O)CCN(CC(N)=O)C(=O)[C@H](Cc2ccc3ccccc3c2)NC(=O)[C@H](CO)NC1=O` [PTR 3201, Phe(N2)-Tyr-(D)Trp-Lys-Ser-2Nal-Gly(C2)-X] (H-[N(2-aminoethyl)Phe]Y[dW]KS[2Nal][N(CH2CH2CO)Gly]-NH2; lactam 1-7; N-terminus and C-terminus assumed): the “metabolic bio-stability against degradation by enzymes” value in data set [5] is “considerable metabolic bio-stability against degradation by enzymes”.

With `C[C@@H](O)[C@@H]1NC(=O)[C@H](CCCCN)NC(=O)[C@@H](Cc2c[nH]c3ccccc23)NC(=O)[C@H](Cc2ccccc2)NC(=O)[C@@H]2CSSC[C@H](NC1=O)C(=O)N([C@@H](Cc1ccccc1)C(N)=O)CCCNC(=O)CCCN[C@@H](Cc1ccccc1)C(=O)N2` [PTR 3205, Phe(C3)-Cys*-Phe-(D)Trp-Lys-Thr-Cys*-Phe(N3)-X], the “metabolic bio-stability against degradation by enzymes” value in data set [5] is “considerable metabolic bio-stability against degradation by enzymes”.

As to `C[C@H](N)C(=O)NCC(=O)N[C@H]1CSSC[C@@H](C(=O)O)NC(=O)[C@H](CO)NC(=O)[C@H]([C@@H](C)O)NC(=O)[C@H](Cc2ccccc2)NC(=O)[C@H]([C@@H](C)O)NC(=O)[C@H](CCCCN)NC(=O)[C@H](Cc2c[nH]c3ccccc23)NC(=O)[C@H](Cc2ccccc2)NC(=O)[C@H](Cc2ccccc2)NC(=O)[C@H](CC(N)=O)NC(=O)[C@H](CCCCN)NC1=O` [SRIF, H-Ala^1-Gly^2-Cys^3-Lys^4-Asn^5-Phe^6-Phe^7-Trp^8-Lys^9-Thr^10-Phe^11-Thr^12-Ser^13-Cys^14-OH, reference compound], in [6], the “binding to Opiate receptors” value was “did not bind”. The “Percent of intact molecule after incubation in renal homogenate” value in data set [2] (Time 0 hrs, 37° C.) is reported as 100%. In data set [2], this molecule yielded an amount remaining at 1 h of 5%, a share remaining at 3 h of 0% and a share remaining at 24 h of 0%.

As to “Phe(N2)-Tyr-(D)Trp-Lys-Val-Gly(C2)-2Nal-X ([N(2-aminoethyl)Phe]Y[dW]KV[N(CH2CH2CO)Gly][2Nal]; lactam 1-6; not fully specified) [PTR 3183]”, in data set [7], the “somatostatin receptor subtype selectivity” value was “selective for the type 5 somatostatin receptor”.

As for “Phe(N2)-Tyr-(D)Trp-Lys-Val-Val-Gly(C2)-X ([N(2-aminoethyl)Phe]Y[dW]KVV[N(CH2CH2CO)Gly]; lactam 1-7; not fully specified) [PTR 3185]”, the “somatostatin receptor subtype selectivity” value in data set [7] is on record as “selective for the type 5 somatostatin receptor”.

B1: PTR 3207 (peptide)
peptide: [dF]CFW[dW]KTF[Gly(S2)]-NH2
modifications: disulfide 2-9; reading uncertain
notes: Backbone to side chain cyclized nonapeptide
With B1, the IC50 in data set [8] amounted to 4 nM; in data set [9] it was 10 nM; in data set [10] it was 1 nM; in data set [11] it was 100 nM; in data set [12], 1 nM.

B2: PTR 3219 (peptide)
peptide: FGFWWKTFG
modifications: (D)Phe at 1; Gly(S2) building units at 2 and 9 bridged to each other; (D)Trp at 5; C-terminal amide
With B2, the midpoint of inhibition in data set [8], the IC50, lay at 37 nM.

[Mpa]FW[dW]KTF[Gly(S2)]-NH2 (bridge N-8; reading uncertain) [PTR 3217]: 4.1 nM corresponded to half-maximal inhibition in data set [8] (IC50).

B3: PTR 3197 (peptide)
peptide: CFW[dW]KTF[Gly(S2)]-NH2
modifications: disulfide 1-8; reading uncertain
notes: Backbone to side chain cyclized octapeptide
Turning to B3, the IC50 was found to be 40 nM in data set [13]; 10 nM in [9]; 1 nM in data set [10]; 10 nM in data set [11]; 10 nM in data set [12]; 1000 nM in data set [14].

As for [Phe(C1)]FF[dW][dK][N(2-aminoethyl)Phe] (lactam 1-6; reading uncertain, Backbone cyclized hexapeptide) [PTR 3123], in [15], the percent inhibition of SRIF-14 binding at 10^-7M was 0% and the percent inhibition of SRIF-14 binding at 10^-8M was 0%. Also, in data set [16], the “percent inhibition of SRIF-14 binding at 10^-6M” value amounted to 84%, the “percent inhibition of SRIF-14 binding at 10^-7M” value was determined as 41% and the “percent inhibition of SRIF-14 binding at 10^-8M” value stood at 24%.

B4: PTR 3211 (peptide)
peptide: {mercaptoacetic acid}-FW[dW]KTF[Gly(S2)]-NH2
modifications: disulfide N-7; reading uncertain
notes: Cyclized between the SH moiety and the SH-type building unit
In data set [8], B4 yielded a 50% inhibitory concentration (IC50) of 1.3 nM.
